Results reported in ChEMBL document CHEMBL1157539, “Thousands of chemical starting points for antimalarial lead identification” (Nature, 2010).

Tested on: Plasmodium falciparum
Assay: GSK_TCMDC: Inhibition of Plasmodium falciparum 3D7 in whole erythrocytes, using parasite LDH activity as an index of growth.
Format: functional, organism-based
Conditions: Plasmodium falciparum, 3D7

SMILES | XC50 [nM]
Cn1c(=O)c(-c2c(Cl)cccc2Cl)cc2cnc(Nc3ccc(N4CCOCC4)cc3)nc21 | 161
COc1ccc2nccc(N/N=C/c3ccc([N+](=O)[O-])cc3)c2c1 | 712
CCCc1cc2c3c(N)nc(N)nc3ccc2n1C(CC)CC | 3.2
CC(C)N1CCC(N(Cc2ccc(-c3ccc(C(F)(F)F)cc3)cc2)C(=O)Cn2c(CCc3cccc(F)c3F)cc(=O)c3ccccc32)CC1 | 850
COc1ccc(NC(=O)/C=C/c2cc(F)cc(C(F)(F)F)c2)cc1OCCN(C(C)C)C(C)C | 669
CCCc1cc(=O)[nH]c(-n2nc(C)cc2NC(=O)C(CC)c2ccccc2)n1 (stereo not drawn) | 944
COc1ccc(C(C(=O)NC2CCN(C[C@H](O)c3ccnc4ccc(OC)cc34)CC2)N2CCN(Cc3ccccc3)CC2)cc1 (stereo partly drawn) | 149
Cc1cccc2nc(-c3cccc(-c4ccc(NC(=O)Cc5c[nH]cn5)cc4)c3)[nH]c12 | 688
COc1ccc(-n2ncc(C(=O)N3CCC4(C3)C(=O)N(c3ccccc3)c3ccccc34)c2C)cc1 (stereo not drawn) | 932
COc1cc(NC(=O)N2CCc3cc(OC)c(OCCN4CCCCC4)cc32)cc(C(F)(F)F)c1 | 1150
Cc1cc(N[C@@H](CC(C)C)C(=O)NCCc2ccccc2)nc(NCc2ccccc2C)n1 | 906
CCCNCc1ccc(-c2ccc(CN(Cc3cccs3)C(=O)C3CCN(C)CC3)cc2)nc1 | 665
CC(C)C[C@H]1c2[nH]c3ccc(Cl)cc3c2CCN1C(=O)CCc1ccccc1 | 885
CC1(C)N=C(N)N=C(N)N1c1cc(Cl)c(Cl)c(Cl)c1 | 11.4
CCCNCc1ccc(-c2ccc(CN(CCOC)C(=O)CCCOCc3ccccc3)cc2)nc1 | 1160
O=C(Nc1ccc(N2CCCN(Cc3cccc(F)c3)CC2)cc1)c1ccccc1 | 961
N=C(N)c1cc(Cl)cc(NC(=O)Nc2cc(Cl)cc(C(=N)N)c2)c1 | 719
Cc1cccc2nc(-c3cccc(-c4ccc(NC(=O)C5CC(=O)Nc6ccccc65)cc4)c3)[nH]c12 (stereo not drawn) | 685
O=[N+]([O-])c1ccc(N2CCCN(C(=S)Nc3ccc(F)cc3Br)CC2)nc1 | 302
O=C(Nc1cccc(CN2CCCN(Cc3ccc4c(c3)OCO4)CC2)c1)c1ccc2ccccc2c1 | 1050
COc1ccc(NC(=O)/C=C/c2ccccc2Cl)cc1OCCN1CCC(N2CCN(C)CC2)CC1 | 487
COc1ccc(-c2cncc(-c3ccc(OC)c(OC)c3)n2)cc1OC | 777
CC(Sc1nc(-c2ccccc2)c(-c2ccccc2)o1)C(=O)NC1CC1 (stereo not drawn) | 843
[O-][S+]1c2ccccc2Sc2ccccc21 | 168
COc1cc2cc(C(=O)Nc3ccccc3)c(N)nc2cc1OC | 1130

SMILES | XC50 [nM]
COc1cccc(CCNCc2ccc(-c3cccc(CNC4CCCC4)c3)cc2)c1 | 734
O=C(O)CCCN1CCCC(=C(c2ccccc2)c2ccccc2)C1 | 1190
COc1ccc(NC(=O)[C@H](Cc2ccccc2)Nc2cc(C)nc(NCCN3CCCC3)n2)cc1 | 1390
COc1ccc(C(=O)NCc2ccccc2-c2ccc(C(C)(C)C)cc2)cc1O | 99.6
O=C(Cc1ccc(-c2ccccc2)cc1)N[C@H]1CCN(Cc2ccc(OCCCN3CCCCC3)cc2)C1 | 772
Nc1cc(-c2cc3c(OCc4ccccc4)cccc3[nH]2)ccn1 | 1190
COc1ccc2nccc([C@@H](O)CN3CCC(NC(=O)c4ccc5nc(-n6cccc6)sc5c4)CC3)c2c1 | 1000
O=C(Nc1cccc(-c2cccc(CN3CCCC3)c2)c1)c1cccc(Cl)c1 | 1180
COc1ccc2nccc(CCN3CC(O)C(CNCc4ccc5c(n4)NC(=O)CS5)C3)c2n1 (stereo not drawn) | 1460
COc1ccc2c(Nc3ccc(N4CCN(C)CC4)cc3)cc(C)nc2c1 | 719
COc1ccc(-c2cc3nc4c(c(NCCCn5ccnc5)n3n2)CCCC4)cc1 | 730
Oc1cc(Nc2ccnc3cc(-c4ccc(CN5CCCCC5)o4)ccc23)c(Cl)cc1F | 122
Cc1cccc(CCCNC(=O)CN(c2cccc(C(F)(F)F)c2)S(=O)(=O)c2ccc(C(F)(F)F)cc2)c1 | 684
Cc1cc(C(=O)N(Cc2ccc(-c3ccc(CNCCc4ccc(S(C)(=O)=O)cc4)cn3)cc2)C(C)CN(C)C)ccc1[N+](=O)[O-] (stereo not drawn) | 789
CCOCc1cnc(C)nc1NCC(=O)c1c(C)[nH]c2cc(C)ccc12 | 1210
N=C(N)NN=CC(=O)Nc1cccc(C(F)(F)F)c1 | 1000
Cc1cc(Nc2ccc(Oc3ccc(Cl)cc3)cc2)nc(N)n1 | 616
Cc1cccc2nc(-c3ccc(-c4ccc(NC(=O)NCc5ccc(F)cc5)cc4)cc3)[nH]c12 | 1330
O=C(Nc1ccc(C(F)(F)F)cc1)NC1CCN(c2ccnc3ccccc23)CC1 | 185
CCN(CC)CCCSc1ccc(-c2ccc(SCCCN(CC)CC)cc2)cc1 | 1160
C[C@H](NC(=O)[C@H](CCCCNC(=O)OC(C)(C)C)NC(=O)OC(C)(C)c1ccc(-c2ccccc2)cc1)C(=O)OCc1ccccc1 | 181
COc1ccccc1N1CCN(C(C(=O)NCc2ccc(C)cc2)c2ccc(C)cc2)CC1 (stereo not drawn) | 932
C=CCOC(=O)N1CCC(CNCc2cccc(-c3ccc(-c4nc5cccc(C)c5[nH]4)cc3)c2)C1 (stereo not drawn) | 251
Cc1cc(=O)c(C2CCC(c3ccc(Cl)cc3)CC2)c(C)[nH]1 (stereo not drawn) | 743
CN1CCC(Oc2cc(CN3CC[C@H](NC(=O)c4ccc(Cl)c(Cl)c4)C3)ccc2I)C1 (stereo partly drawn) | 843

SMILES | XC50 [nM]
CCN(CC)c1ccc2nc(N)nc(N)c2c1 | 73.9
COc1ccc2c(NN=Cc3cccc(C)n3)ccnc2c1 | 761
O=C(Nc1ccccc1-c1nc2ccccc2s1)C(Cl)(Cl)Cl | 638
NC1CCN(Cc2cccc(-c3ccc(-c4nc5ccccc5[nH]4)cc3)c2)C1 (stereo not drawn) | 830
COc1ccc(CNCCc2cccs2)cc1-c1ccc(S(=O)(=O)NCCN2CCCC2)s1 | 877
CN(C(=O)/C=C/c1cc(C(F)(F)F)ccc1F)C1CCN(CCCCCNC(=O)/C=C/c2ccc(Cl)c(Cl)c2)C1 (stereo not drawn) | 1090
Nc1nc(-c2ccccn2)nc(-n2nc(-c3cccc(C(F)(F)F)c3)cc2N)n1 | 1040
CC[C@H]1CN2CC[C@H]1C[C@@H]2[C@@H](OC(=O)c1ccc(Cl)cc1)c1ccnc2ccc(OC)cc12 | 922
O=C(Nc1ccc(-c2nc3ccccc3[nH]2)cc1)c1cccc([N+](=O)[O-])c1 | 220
Cc1ccc(O)c(-c2cc(C(=O)Nc3ccc(S(=O)(=O)N4CCCC(C)C4)cc3)[nH]n2)c1 (stereo not drawn) | 707
O=C(N[C@@H](CC1CCCCC1)C(=O)NCCN1CCCC1)c1ccc(O)c(-c2ccc(Cl)c(Cl)c2)c1 | 312
COC(=O)c1ccc(CC(C)NCC(O)c2cccc(I)c2)cc1 (stereo not drawn) | 1320
C=CC[C@H](C[C@H](O)[C@H](Cc1ccccc1)NC(=O)c1ccc(-c2cccnn2)cc1)C(=O)NC1CCCCC1 | 1190
COc1c(C2CCN(CCCCNC(=O)c3ccc(-c4ccc(C#N)cc4)c(O)c3)CC2)ccc2c1CCCC2 | 199
Clc1ncnc2ncn(Cc3cccc(Br)c3)c12 | 1060
CN1CCN(c2ccnc3ccc(NC(=O)N(C)c4ccc(Cl)c(Cl)c4)cc23)CC1 | 741
N=C(N)NC(=O)Nc1ccc(Cl)c([N+](=O)[O-])c1 | 762
O=C(NC1CCC(CCN2Cc3cccc(C(F)(F)F)c3C2)CC1)c1cccc(-c2cccnc2)c1 (stereo not drawn) | 1020
OCCNc1nc(Nc2ccc(F)cc2)nc2ccccc12 | 164
COc1ccc2nccc([C@@H](O)CN3CCC(NCc4ccc5nc[nH]c(=O)c5c4)CC3)c2c1 | 921
CN1CCCN(Cc2ccc(-c3cccc(NC(=O)c4cccc(F)c4)c3)cc2)CC1 | 980
COc1ccc(-c2cccc(CNC3CCN(CC4Cn5c(=O)ccc6ccc(F)c4c65)CC3)c2)cc1 (stereo not drawn) | 1090
Cc1nc2ccccc2c(O)c1[N+](=O)[O-] | 1110
CC1CCN(Cc2c(O)ccc3c(CN4CCC(C)CC4)c(O)ccc23)CC1 | 133
CCN1CCc2c1cc(C(=O)N[C@@H](Cc1ccccc1)[C@H](O)CNC(C)(C)c1cccc(C(F)(F)F)c1)cc2N1CCCCS1(=O)=O | 109

SMILES | XC50 [nM]
CC(C)N(Cc1cnc(N)c(C#N)n1)c1ccc(Cl)c(Cl)c1 | 844
O=C(/C=C/c1ccc(Cl)c(Cl)c1)NCCCCCN1CCC(NC(=O)Nc2cc(F)cc(F)c2)CC1 | 787
COc1cc(Cc2cnc(N)nc2N)cc(OCCNC(=O)OCc2ccccc2)c1OC | 923
CCCC(CNCc1cccc(I)c1)CNc1cc(=O)c2ccccc2[nH]1 (stereo not drawn) | 471
O=C(Nc1cccc(CN2CCCN(Cc3cccc(O)c3)CC2)c1)c1ccc(-c2ccccc2)cc1 | 641
CCCCCN1CCCC(CNS(=O)(=O)c2ccc(C(=O)Nc3ccc(C(F)(F)F)cc3)cc2)C1 (stereo not drawn) | 916
c1ccn2c(-c3ncnc(NCc4ccc5c(c4)CCO5)n3)cnc2c1 | 1190
CN1CCN(c2cccc(Nc3nccc(NCC(O)c4ccccc4)n3)c2)CC1 (stereo not drawn) | 718
O=C(Nc1cccc(-c2ccc(-c3nc4cc(C(F)(F)F)ccc4[nH]3)cc2)c1)c1csnn1 | 686
c1ccc(C(OCCC2CCN(Cc3cccc4cccnc34)CC2)c2ccccc2)cc1 | 874
COc1cc2c(cc1OC)CC(NCCCCCCNCCc1ccc(Cl)cc1)CC2 (stereo not drawn) | 738
Cc1ccc(F)c(OC2CCN(c3ccc(C(=O)NC4CC4)cn3)CC2)c1 | 823
O=C(NC1CCN(CCN2CCC(c3c[nH]c4ccccc34)CC2)CC1)c1ccc(-c2ccc(C(F)(F)F)cc2)cc1 | 205
CN1CCN(c2ccnc3cc4c(cc23)N(C(=O)Nc2ccc(-c3ccncc3)c3ccccc23)CC4)CC1 | 945
Cc1cc(C(=O)Nc2ccc3c(c2)CCN3C2CCN(Cc3cc(F)cc(F)c3F)C2)no1 (stereo not drawn) | 282
COc1ccc2oc(=O)c(C#N)c(O)c2c1 | 211
CS(=O)(=O)Nc1ccc2[nH]cc(C3CCN(CC4CCC(NC(=O)/C=C/c5ccccc5Cl)CC4)CC3)c2c1 (stereo not drawn) | 793
O=C(NCCCCN1CCN(c2cccc3c2OCCO3)CC1)c1ccc(NC(=O)c2cc(Cl)cc(Cl)c2)cc1 | 225
O=C(NCc1ccc(Cl)cc1)c1ccc(C(=O)NCC2CCCN2CC2CCCCC2)cc1 (stereo not drawn) | 854
c1ccc(-c2cc(NCc3cccc4ccccc34)c3[nH]ncc3n2)cc1 | 518
O=C(Nc1ccc(F)c(C(F)(F)F)c1)N[C@H]1CCN(CCCCCNC(=O)C2CC2c2ccc(Cl)c(Cl)c2)C1 (stereo partly drawn) | 157
Cc1cccc(N2CCN(Cc3cc(Cl)ccc3O)CC2)c1C | 771
CS(=O)(=O)Nc1ccc2[nH]cc(C3CCN(CC4CCC(NC(=O)/C=C/c5ccc(Cl)c(Cl)c5)CC4)CC3)c2n1 (stereo not drawn) | 780
